Data on 1 compound can be found in US20100203531A1, “PREDICTING RESPONSIVENESS TO TEMOZOLOMIDE” (priority 2007, published 2010).

Format in all cases: in vivo, human
The subject of assay [1] is GBM36 xenograft. Nature of the assay: Orthotopic intracranial xenograft survival, GBM36. On the procedure: (§1) In vivo sensitivity of GBM lines to TMZ: To address whether MGMT methylation or polypeptide expression status are predictive of TMZ responsiveness, the effects of TMZ therapy on survival were evaluated in the panel of xenografts using an orthotopic therapy model. Mice with established intracranial xenografts were treated with 66 mg/kg TMZ or placebo daily for 5 days by oral gavage. This TMZ dosing regimen provides the equivalent dose-exposure to TMZ as the standard adjuvant TMZ dosing regimen for GBM patients of 200 mg/m^2×5 days. All mice were followed until reaching a moribund state, and the relative prolongation of survival following TMZ treatment was calculated for each line relative to placebo treatment (Table 1). […] Further analysis of the relationship between TMZ responsiveness and MGMT methylation status in 17 xenograft lines was conducted by comparing the distribution of median survival prolongation results for methylation-positive and methylation-negative groups of xenografts. From this analysis, MGMT methylation was modestly associated with increased TMZ sensitivity (FIG. 2, p=0.039, two-sample rank sum test). In a similar analysis of MGMT polypeptide expression levels, high levels of MGMT polypeptide expression were invariably associated with relative TMZ resistance, and the absence of MGMT polypeptide expression was associated with significant TMZ sensitivity (r=−0.73, p=0.005). […] While p53, PTEN and EGFR function have been linked to TMZ sensitivity in some models, no correlation between genetic alterations of these genes and TMZ responsiveness was observed.
(§2) Orthotopic model: Therapy evaluations were conducted using an orthotopic tumor model as described elsewhere (Sarkaria et al., Clin Cancer Res, 12:2264-2271 (2006), Giannini et al., Neuro-Oncology, 7:164-176, (2005)). Athymic nude mice (NCI, Frederick, Md.) with established intracranial tumors were randomized into groups of 8 to 10 mice each and treatment was initiated 2 weeks before mice were expected to become moribund. TMZ was purchased from the Mayo Clinic Pharmacy, suspended in Ora-plus (Paddock Laboratories, Minneapolis. MN), and administered by oral gavage at 66 mg/kg for 5 days. Mice were observed daily and euthanized when moribund.
Statistical analysis: Survival distributions were estimated using the Kaplan-Meier method. The log rank test was used to compare survival across treatment groups. All GBM experiments were pooled and Classification and Regression Tree analysis (CART) was used to identify which CpG sites in the MS-PCR assay (CpG sites 78-82, 86-89) were predictive of overall survival in TMZ treated mice. The two-sample rank sum test was used to compare relative differences in survival relative to MGMT MS-PCR status or CpG89 methylation status. […]

The test system of assay [2] is GBM26 xenograft. Kind of assay: Orthotopic intracranial xenograft survival, GBM26. The conditions noted are these: for Survival Prolongation: median survival relative to placebo, 66 mg/kg oral for 5 days (Table 3), 66 mg/kg. On the procedure: as §1, §2
(§3) Statistical analysis: Survival distributions were estimated using the Kaplan-Meier method. The log rank test was used to compare survival across treatment groups. All GBM experiments were pooled and Classification and Regression Tree analysis (CART) was used to identify which CpG sites in the MS-PCR assay (CpG sites 78-82, 86-89) were predictive of overall survival in TMZ treated mice. The two-sample rank sum test was used to compare relative differences in survival relative to MGMT MS-PCR status or CpG89 methylation status. Spearman's correlation coefficient was used to assess the association of relative median survival and protein expression levels of MGMT relative to 13-actin.

The subject of assay [3] is GBM44 xenograft. Nature of the assay: Orthotopic intracranial xenograft survival, GBM44. On the procedure: as §1, with “Mice with established intracranial xenografts were treated with 66 mg/kg TMZ or placebo daily for 5 days by oral gavage.” left out
(§4) Orthotopic model: Therapy evaluations were conducted using an orthotopic tumor model as described elsewhere (Sarkaria et al., Clin Cancer Res, 12:2264-2271 (2006), Giannini et al., Neuro-Oncology, 7:164-176, (2005)). Athymic nude mice (NCI, Frederick, Md.) with established intracranial tumors were randomized into groups of 8 to 10 mice each and treatment was initiated 2 weeks before mice were expected to become moribund. TMZ was purchased from the Mayo Clinic Pharmacy, suspended in Ora-plus (Paddock Laboratories, Minneapolis. […] Mice were observed daily and euthanized when moribund.
as §3

In assay [4] the test system is GBM12 xenograft. Nature of the assay: Orthotopic intracranial xenograft survival, GBM12. The protocol:
as §1, §4, §3

In assay [5] the test system is GBM59 xenograft. Nature of the assay: Orthotopic intracranial xenograft survival, GBM59. The protocol: In vivo sensitivity of GBM lines to TMZ: To address whether MGMT methylation or polypeptide expression status are predictive of TMZ responsiveness, the effects of TMZ therapy on survival were evaluated in the panel of xenografts using an orthotopic therapy model. Mice with established intracranial xenografts were treated with 66 mg/kg TMZ or placebo daily for 5 days by oral gavage. This TMZ dosing regimen provides the equivalent dose-exposure to TMZ as the standard adjuvant TMZ dosing regimen for GBM patients of 200 mg/m^2×5 days. All mice were followed until reaching a moribund state, and the relative prolongation of survival following TMZ treatment was calculated for each line relative to placebo treatment (Table 1). […] Further analysis of the relationship between TMZ responsiveness and MGMT methylation status in 17 xenograft lines was conducted by comparing the distribution of median survival prolongation results for methylation-positive and methylation-negative groups of xenografts. From this analysis, MGMT methylation was modestly associated with increased TMZ sensitivity (FIG. 2, p=0.039, two-sample rank sum test). […]

On to `Cn1nnc2c(C(N)=O)ncn2c1=O` [TMZ, Temozolomide], for which the “Survival Prolongation” value in assay [1] (GBM36, median survival relative to placebo, 66 mg/kg oral for 5 days (Table 3)) is given as 82%; in assay [2] (GBM26), 21%; in assay [2] (GBM26, listed as Temozolomide) it was 21%; in assay [3] (GBM44, median survival relative to placebo, 66 mg/kg oral for 5 days (Table 3)), 60%; in assay [4] (GBM12, median survival relative to placebo, 66 mg/kg oral for 5 days (Table 3)), 253%. The Survival benefit in assay [1] (GBM36, prolongation of median survival relative to placebo, TMZ 66 mg/kg oral x5 days) is 82%; in assay [2] (GBM26, prolongation of median survival relative to placebo, TMZ 66 mg/kg oral x5 days), 21%; in assay [3] (GBM44, prolongation of median survival relative to placebo, TMZ 66 mg/kg oral x5 days) it was 60%; in assay [3] (GBM44 generation 5, TMZ 120 mg/kg for 5 days, intracranial), −7%; in assay [3] (GBM44 generation 12, TMZ 66 mg/kg for 5 days, intracranial), 60%; in assay [4] (GBM12, prolongation of median survival relative to placebo, TMZ 66 mg/kg oral x5 days), 253%. Besides, the Survival benefit is listed as 268% in assay [4] (GBM12 generation 10, TMZ 120 mg/kg for 5 days, intracranial); 164% in assay [4] (GBM12 generation 30, TMZ 66 mg/kg for 5 days, intracranial); 96% in assay [5] (GBM59, prolongation of median survival relative to placebo, TMZ 66 mg/kg oral x5 days). Also, the TMZ median survival in assay [1] (GBM36 intracranial xenograft, nude mice, TMZ 66 mg/kg oral daily x5 days) is 214; in assay [2] (GBM26 intracranial xenograft, nude mice, TMZ 66 mg/kg oral daily x5 days), 100; in assay [3] (GBM44 intracranial xenograft, nude mice, TMZ 66 mg/kg oral daily x5 days) it was 56; in assay [4] (GBM12 intracranial xenograft, nude mice, TMZ 66 mg/kg oral daily x5 days) it was 53; in assay [5] (GBM59 intracranial xenograft, nude mice, TMZ 66 mg/kg oral daily x5 days), 90. For the same compound, the Temozolomide median survival amounted to 229 in assay [1] (GBM36 intracranial, athymic nude mice, 66 mg/kg oral gavage for 5 days (Table 3)); 100 in assay [2] (GBM26 intracranial, athymic nude mice, 66 mg/kg oral gavage for 5 days (Table 3)); 56 in assay [3] (GBM44 intracranial, athymic nude mice, 66 mg/kg oral gavage for 5 days (Table 3)); 53 in assay [4] (GBM12 intracranial, athymic nude mice, 66 mg/kg oral gavage for 5 days (Table 3)).
